How the values were obtained:
NCI-H460 = experiment: MTT antiproliferative assay, NCI-H460; format: cell-based, human; settings: mean ± SD
Method: (§1) Having evaluated their Topo I inhibitory activity, the antiproliferative activity of the target compounds against some common human cancer cell lines (NCI-H460, A549, ACHN, Cal27 and MGC-803) and one normal cell line (SV-HUC-1) was tested via an MTT assay. TPT, the first Topo I inhibitor approved in clinics, and cisplatin (CDDP), a commonly selected anticancer drug for treating head and neck malignancies, were used as the positive controls.
(§2) Human oral cancer Cal27 cells were seeded in 96-well plates and incubated overnight in 180 μL of medium containing 10% Fetal Bovine Serum (Gibco, San Francisco, CA, USA). […] Then, 10 μL of 5 mg/mL MTT solution was added to each well and incubated at 37 °C for 4 h. After 4 h of incubation at 37 °C, the MTT-containing medium was removed and DMSO was added to each well and the absorbance at 570 nm and 630 nm was measured using a microplate reader (CYTATION 3, Burton, Westwood, NJ, USA). Survival/% = (mean OD of experimental group/mean OD of control group) × 100%. Each test was repeated at least three times.

A549 = experiment: MTT antiproliferative assay, A549; format: cell-based, human; settings: mean ± SD
Method: as §1, §2

ACHN = experiment: MTT antiproliferative assay, ACHN; format: cell-based, human; settings: 48 h, mean ± SD
Method: as §1, §2

Cal27 = experiment: MTT antiproliferative assay, Cal27; format: cell-based, human; settings: mean ± SD
Method: as §1, §2

MGC-803 = experiment: MTT antiproliferative assay, MGC-803; format: cell-based, human; settings: mean ± SD
Method: as §1, §2

SV-HUC-1 = experiment: MTT assay, normal cell line SV-HUC-1; format: cell-based; settings: mean ± SD
Method: as §1, §2

Topo I = biological target: T1, Topo I (Homo sapiens, UniProt P11387); experiment: Topo I inhibitory activity, agarose gel electrophoresis (pBR322); format: biochemical; settings: 20 μM
T1 sequence (P11387 1-765): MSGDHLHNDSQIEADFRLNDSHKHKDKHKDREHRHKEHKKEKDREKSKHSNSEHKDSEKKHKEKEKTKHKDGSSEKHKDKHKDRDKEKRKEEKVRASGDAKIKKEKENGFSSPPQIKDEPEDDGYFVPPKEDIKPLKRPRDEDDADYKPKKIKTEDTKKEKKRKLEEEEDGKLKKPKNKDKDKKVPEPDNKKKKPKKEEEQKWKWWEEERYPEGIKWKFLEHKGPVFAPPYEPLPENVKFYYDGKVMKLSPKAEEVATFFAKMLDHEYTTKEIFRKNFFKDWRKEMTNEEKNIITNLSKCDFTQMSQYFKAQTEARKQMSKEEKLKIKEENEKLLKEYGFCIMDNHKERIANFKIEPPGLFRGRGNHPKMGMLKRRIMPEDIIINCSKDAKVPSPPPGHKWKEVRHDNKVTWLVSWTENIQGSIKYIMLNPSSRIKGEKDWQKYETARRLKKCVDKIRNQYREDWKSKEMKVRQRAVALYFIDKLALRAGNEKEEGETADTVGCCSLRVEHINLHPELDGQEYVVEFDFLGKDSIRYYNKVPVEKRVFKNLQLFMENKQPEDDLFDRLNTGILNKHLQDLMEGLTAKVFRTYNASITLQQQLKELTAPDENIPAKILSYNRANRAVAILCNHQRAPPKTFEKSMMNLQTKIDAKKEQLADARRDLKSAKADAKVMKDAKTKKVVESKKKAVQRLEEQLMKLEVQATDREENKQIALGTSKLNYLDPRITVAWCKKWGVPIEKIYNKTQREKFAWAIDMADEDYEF
Method: In this assay, 250 ng of pBR322 plasmid DNA, different concentrations of the compounds to be tested, 0.1% BSA 1 μL, 10× Topo I buffer, Topo I and add 1× TAE buffer were mixed to a final volume of 20 μL. The reaction was carried out for 30 min at 37 °C in a water bath. After the reaction was terminated, 4 μL of each of the 6× DNA Sampling Buffers were added to the gel. The pBR322 plasmid DNA alone was used as a negative control, and camptothecin was used as a positive control. Finally, the samples were loaded onto the gels and electrophoresed for about 1.5 h. After electrophoresis, the gel blocks were incubated in 1 mg/L ethidium bromide (EB) for 30 min and then visualized on the gel system.

Row | IC50 (NCI-H460; 48 h) [µM] | IC50 (A549; 48 h) [µM] | IC50 (ACHN) [µM] | IC50 (MGC-803; 48 h) [µM] | nicked DNA in the lane (DNA breakage) (Topo I) | IC50 (NCI-H460; Homo sapiens, NCI-H460, 48 h) [µM] | IC50 (A549; Homo sapiens, A549, 48 h) [µM] | IC50 (ACHN; Homo sapiens, ACHN) [µM] | IC50 (MGC-803; Homo sapiens, MGC-803, 48 h) [µM] | Topo I inhibitory activity (in words) (Topo I) | SMILES | IC50 (Cal27; 48 h) [µM] | IC50 (SV-HUC-1; 48 h) [µM] | IC50 (Cal27; Homo sapiens, CAL-27, 48 h) [µM] | IC50 (SV-HUC-1; SV-HUC1, 48 h) [µM]
1 | > 100 | > 100 | > 100 | > 100 | nicked DNA could be clearly observed | – | – | – | – | – | Cc1cc(-c2ccccc2)nc2c1-c1nc(NCCCN3CCCC3)c3ccccc3c1S2(=O)=O [7ch, 7-Methyl-9-phenyl-5-((3-(pyrrolidin-1-yl)propyl)-amino)pyrido[3′,2′:4,5]thieno[3,2-c]isoquinoline 11,11-dioxide] | > 100 | 49.6 ± 3.27 | – | –
2 | – | – | – | – | – | > 100 | > 100 | > 100 | > 100 | – | Cc1cc(C)c2c(n1)S(=O)(=O)c1c-2nc(NCCCn2ccnc2)c2ccccc12 [7bj, 5-((3-(1H-Imidazol-1-yl)propyl)amino)-7,9-dimethylpyrido[3′,2′:4,5]thieno[3,2-c]isoquinoline 11,11-dioxide] | – | – | > 100 | > 100
3 | – | – | – | – | – | 59 ± 3.81 | > 100 | 20.5 ± 4.82 | 21.6 ± 0.64 | – | CN(C)CCNc1nc2c(c3ccccc13)S(=O)(=O)c1ncccc1-2 [7aa, 5-((2-(Dimethylamino)ethyl)amino)pyrido[3′,2′:4,5] thieno[3,2-c]isoquinoline 11,11-dioxide] | – | – | 14.4 ± 4.75 | 20.8 ± 3.83
4 | > 100 | > 100 | > 100 | > 100 | – | – | – | – | – | – | Cc1cc(-c2ccccc2)nc2c1-c1nc(NCCN3CCCC3)c3ccccc3c1S2(=O)=O [7cc, 7-Methyl-9-phenyl-5-((2-(pyrrolidin-1-yl)ethyl)amino)pyrido[3′,2′:4,5]thieno[3,2-c]isoquinoline 11,11-dioxide] | > 100 | > 100 | – | –
5 | – | – | – | – | – | 6.68 ± 1.5 | 7.03 ± 1.95 | 4.59 ± 1.68 | 6.33 ± 0.75 | potent Topo I activity | Cc1cc(C)c2c(n1)S(=O)(=O)c1c-2nc(NCCN(C)C)c2ccccc12 [7ba, 5-((2-(Dimethylamino)ethyl)amino)-7,9-dimethylpyrido[3′,2′:4,5]thieno[3,2-c]isoquinoline 11,11-dioxide] | – | – | 4.99 ± 2 | 4.66 ± 1.69
6 | > 100 | > 100 | > 100 | 53.1 ± 3.78 | – | – | – | – | – | – | Cc1cc(-c2ccccc2)nc2c1-c1nc(NCCN(C)C)c3ccccc3c1S2(=O)=O [7ca, 5-((2-(Dimethylamino)ethyl)amino)-7-methyl-9-phenylpyrido[3′,2′:4,5]-thieno[3,2-c]isoquinoline 11,11-dioxide] | > 100 | > 100 | – | –
7 | 93 ± 8.03 | 86.5 ± 3.15 | > 100 | 94 ± 2.15 | – | – | – | – | – | – | Cc1cc(-c2ccccc2)nc2c1-c1nc(NCCN3CCCCC3)c3ccccc3c1S2(=O)=O [7ce, 7-Methyl-9-phenyl-5-((2-(piperidin-1-yl)ethyl)-amino)pyrido[3′,2′:4,5]thieno[3,2-c]isoquinoline 11,11-dioxide] | 56.8 ± 2.59 | > 100 | – | –
8 | > 100 | > 100 | > 100 | > 100 | – | – | – | – | – | – | Cc1cc(-c2ccccc2)nc2c1-c1nc(NCCCN3CCOCC3)c3ccccc3c1S2(=O)=O [7ci, 7-Methyl-5-((3-morpholinopropyl)amino)-9-phenylpyrido[3′,2′:4,5]thieno[3,2-c]isoquinoline 11,11-dioxide] | > 100 | > 100 | – | –
9 | > 100 | 78.9 ± 2.86 | > 100 | > 100 | – | – | – | – | – | – | Cc1cc(-c2ccccc2)nc2c1-c1nc(NCCN3CCOCC3)c3ccccc3c1S2(=O)=O [7cd, 7-Methyl-5-((2-morpholinoethyl)amino)-9-phenylpyrido[3′,2′:4,5]thieno[3,2-c]isoquinoline 11,11-dioxide] | > 100 | > 100 | – | –
10 | – | – | – | – | – | 16.9 ± 0.78 | > 100 | 61.7 ± 4.9 | 14.2 ± 2.46 | – | O=S1(=O)c2ncccc2-c2nc(NCCN3CCCCC3)c3ccccc3c21 [7ae, 5-((2-(Piperidin-1-yl)ethyl)amino)pyrido[3′,2′:4,5] thieno[3,2-c]isoquinoline 11,11-dioxide] | – | – | 7.96 ± 2.24 | 15.2 ± 2.43
11 | – | – | – | – | – | > 100 | > 100 | > 100 | > 100 | – | O=S1(=O)c2ncccc2-c2nc(NCCN3CCOCC3)c3ccccc3c21 [7ad, 5-((2-Morpholinoethyl)amino)pyrido[3′,2′:4,5]thieno[3,2-c]isoquino-line 11,11-dioxide] | – | – | > 100 | > 100
12 | – | – | – | – | – | 59.7 ± 9.65 | 42.6 ± 1.89 | > 100 | 47 ± 2.43 | – | CCN(CC)CCNc1nc2c(c3ccccc13)S(=O)(=O)c1ncccc1-2 [7ab, 5-((2-(Diethylamino)ethyl)amino)pyrido[3′,2′:4,5] thieno[3,2-c]isoquinoline 11,11-dioxide] | – | – | 23.8 ± 1.08 | 21.6 ± 3.19
13 | > 100 | > 100 | > 100 | > 100 | – | – | – | – | – | – | Cc1cc(-c2ccccc2)nc2c1-c1nc(NCCCn3ccnc3)c3ccccc3c1S2(=O)=O [7cj, 5-((3-(1H-imidazol-1-yl)propyl)amino)-7-methyl-9-phenylpyrido[3′,2′:4,5]thieno[3,2-c]isoquinoline 11,11-dioxide] | > 100 | > 100 | – | –
14 | – | – | – | – | – | > 100 | > 100 | > 100 | > 100 | – | O=S1(=O)c2ncccc2-c2nc(NCCCN3CCOCC3)c3ccccc3c21 [7ai, 5-((3-Morpholinopropyl)amino)pyrido[3′,2′:4,5] thieno[3,2-c]isoquinoline 11,11-dioxide] | – | – | > 100 | > 100
15 | > 100 | 37.39 ± 0.21 | > 100 | > 100 | – | – | – | – | – | – | CCN(CC)CCNc1nc2c(c3ccccc13)S(=O)(=O)c1nc(-c3ccccc3)cc(C)c1-2 [7cb, 5-((2-(Diethylamino)ethyl)amino)-7-methyl-9-phenylpyrido[3′,2′:4,5]thieno[3,2-c]isoquinoline 11,11-dioxide] | 20.3 ± 2.34 | > 100 | – | –
16 | – | – | – | – | – | > 100 | > 100 | > 100 | > 100 | – | O=S1(=O)c2ncccc2-c2nc(NCCCn3ccnc3)c3ccccc3c21 [7aj, 5-((3-(1H-Imidazol-1-yl)propyl)amino)pyrido[3′,2′:4,5]thieno[3,2-c]isoquinoline 11,11-dioxide] | – | – | > 100 | > 100
17 | – | – | – | – | – | > 100 | > 100 | > 100 | > 100 | – | O=S1(=O)c2ncccc2-c2nc(N3CCCC3)c3ccccc3c21 [7al, 5-(Pyrrolidin-1-yl)pyrido[3′,2′:4,5]thieno[3,2-c]isoquinoline 11,11-dioxide] | – | – | > 100 | > 100

Row | SMILES | IC50 (NCI-H460; 48 h) [µM] | IC50 (A549; 48 h) [µM] | IC50 (ACHN) [µM] | IC50 (MGC-803; 48 h) [µM] | nicked DNA in the lane (DNA breakage) (Topo I) | IC50 (NCI-H460; Homo sapiens, NCI-H460, 48 h) [µM] | IC50 (A549; Homo sapiens, A549, 48 h) [µM] | IC50 (ACHN; Homo sapiens, ACHN) [µM] | IC50 (MGC-803; Homo sapiens, MGC-803, 48 h) [µM] | Topo I inhibitory activity (in words) (Topo I) | IC50 (Cal27; 48 h) [µM] | IC50 (SV-HUC-1; 48 h) [µM] | IC50 (Cal27; Homo sapiens, CAL-27, 48 h) [µM] | IC50 (SV-HUC-1; SV-HUC1, 48 h) [µM]
18 | CC[C@@]1(O)C(=O)OCc2c1cc1n(c2=O)Cc2cc3c(CN(C)C)c(O)ccc3nc2-1 [TPT, topotecan, reference compound] | – | – | – | – | – | 21.4 ± 1.33 | 3.84 ± 0.56 | 4.32 ± 0.63 | 6.36 ± 1.09 | – | – | – | 2.33 ± 0.12 | 30.8 ± 1.58

Reference: PMC11858653, “Design, Synthesis and Bioactive Evaluation of Topo I/c-MYC Dual Inhibitors to Inhibit Oral Cancer via Regulating the PI3K/AKT/NF-κB Signaling Pathway” (Molecules, 2025)
